Test results from US9550078B2, “EDAR ligand derived peptides and use thereof” (CAREGEN CO., LTD., priority 2011, dated 2017).
Where no end group is shown, it is not given here.

Columns and labels:
Assay type in all cases: cell-based
NIH3T3 fibroblasts = experiment: SRB colorimetric assay of cell growth; details: 1, 10 and 50 μg/ml, 72 hr, absorbance at 590 nm
Experimental: In order to evaluate three peptides prepared in Preparation Example 1 whether they have similar activities of growth factor, SRB (Sulforhodamine B; Sigma-Aldrich) colorimetric assay was carried out using HaCaT kerationcytes (Korean Cell Line Bank) and NIH3T3 fibroblasts (Korean Cell Line Bank) according to Rizzino et al. method (Rizzino, et al. Cancer Res., 48: 4266 (1988)).
HaCaT ketatinocytes and NIH3T3 fibroblasts were cultured in 250 ml-flasks containing EMEM (Eagle's minimal essential media; Gibco, USA) supplemented with 10% FBS (fetal bovine serum; Sigma). Cells cultured were treated with 1% trypsin solution to detach cells from the bottom of culture flasks and centrifuged to collect cell pellets. After cells were resuspended in EMEM not containing FBS, its aliquot (3×10^3 cells) was added to each well of 96-well plates and cultured under 5% CO2 for 24 hr at 37° C. After 24-hr culture, the medium was changed with a fresh medium without serum and cells were incubated with empty sample (for normalization) and peptides synthesized aseptically dissolved in […] distilled water with the respective concentrations of 1 μg/ml, 10 μg/ml and 50 μg/ml for 72 hr under the same conditions as described above. After removing supernatants, cells were fixed with ethanol and then washed three times using PBS (phosphate buffered saline), followed by incubation with SRB solution. Cells were sufficiently washed with 1% acetic acid and observed under a microscope to find living cell condition. In addition, absorbance at 590 nm was measured to analyze cell viability.

IL-1b, IL-6, and COX-2 = experiment: RT-PCR of NF-κB-induced genes; details: HaCaT keratinocytes
Experimental: (§1) HaCaT kerationcytes were incubated with the peptides synthesized in preparation Example 1 for 20 min. The translocation of NF-κB into nucleus through the phosphorylation of IκB was examined as a representative signaling of EDA protein. The respective effect was measured by Western blot analysis using an antibody against IκB and NF-κB (SantaCruz, USA). The effect of IκB degradation through phosphorylation and uniquitination in a concentration dependent manner of the treated peptides of this invention was confirmed (FIGS. 3a and 3b). Furthermore, the activation and nucleus translocation of NF-κB was also observed after degradation of IκB (FIGS. 4a and 4b). […] The expression levels of the above mentioned proteins of IL-1b, IL-6, and COX-2 were increased with the translocations of NF-κB into nucleus which is induced by the treatments of the peptides.

NF-κB = experiment: Western blot of NF-κB translocation into nucleus; details: HaCaT keratinocytes, 20 min
Experimental: as §1

IκB = experiment: Western blot of IκB degradation (EDA1-EDAR signal); details: HaCaT keratinocytes, 20 min
Experimental: as §1

Shh protein = experiment: Western blot of Shh protein expression; details: keratinocytes, 10 μg/ml, 24 hr
Experimental: To verify whether the peptides synthesized in preparation Example 1 enhances the expression of Shh protein which is known as EDA1 target molecule and to stimulate the hair follicle, kerationcytes (3×10^5 cells) was added to each well of 96-well plates and cultured under 5% CO2 for 24 hr at 37° C. After 24-hr culture, the medium was changed with a fresh medium without serum and cells were treated with empty sample (for normalization) and peptides synthesized aseptically dissolved in distilled water with the concentration of 10 μg/ml and cultured for 24 hr under the same conditions as described above. After that, the cell culture was collected and the expression level of Shh was measured through Western blotting using the specific antibody to Shh protein.

Sequence	growth of fibroblasts (NIH3T3 fibroblasts)	growth of fibroblasts (NIH3T3 fibroblasts; listed as SEQ ID NO:1)	expression of COX-2, IL-6, IL-1b (IL-1b, IL-6, and COX-2)	translocation of NF-κB into nucleus (NF-κB)	cellular amount of IκB protein (degradation through phosphorylation and ubiquitination) (IκB)	expression of Shh protein (Shh protein)	growth of fibroblasts (NIH3T3 fibroblasts; listed as SEQ ID NO:2)
NMSKHTTFFGA	notably increases	stimulatory effect	remarkably enhanced	translocation of NF-κB into nucleus after activation	reduced	remarkably enhanced	
LLADTTHHRPWT [compound 2]	notably increases		remarkably enhanced	translocation of NF-κB into nucleus after activation	reduced	remarkably enhanced	stimulatory effect
